From patent publication US12258332B2, “ASGPR cell surface receptor binding compounds and conjugates” (Lycia Therapeutics, Inc., priority 2021, dated 2025)
Entries after “also recorded” stand apart in the source; their conditions may differ.

How the values were obtained:
HepG2 cells [1] = test: Uptake of Alexa488-labelled target IgE bound to omalizumab (OMA) conjugates in HepG2 cells, flow cytometry; format: cell-based, human; conditions: omalizumab (anti-IgE) conjugate bound to IgE-Alexa488, equal molar ratios; 1 hour
Description: (§1) The omalizumab conjugates of Example 60 were bound to IgE-Alexa488 (prepared according to Example 62), as follows: equal molar ratios of omalizumab (anti-IgE) conjugate and IgE-Alexa488 were added in tissue culture media for 30 minutes at room temperature. The resulting anti-IgE conjugate:IgE antibody-Alexa488 compositions were added to HepG2 cells (100 k cells/50 ul per well, n=2), and Alexa488 fluorescence levels in the cells were measured at 1 hour by flow cytometry. As the fluorescently labelled target (IgE antibody) accumulates in cells, the fluorescence presents a way to measure total intracellular uptake by cells over time.
as §1, with “OMA Ab” for “The omalizumab”, “example compounds I-160-I-163 and I-141” for “Example 60”, “by adapting procedure in” for “according to”, “61),” for “62),”, “OMA(anti-IgE)” for “omalizumab (anti-IgE)”

[2] = Pharmacokinetic study of OMA-linked compounds in mice, serum hIgG by ELISA; format: in vivo; conditions: IV 5 mg/kg, female C57BL/6 mice, up to 168 hours
Description: Pharmacokinetic (PK) studies were undertaken to determine the pharmacokinetic profile of various OMA linked example compounds (I-161-I-163).
Protocol: Female C57BL/6 mice are dosed via IV with 5 mg/kg of OMA-example compounds, and OMA-reference. Serum samples are collected at 0.083, 0.25, 0.5, 1, 2, 4, 8, 24, 48, 72, and 168 hours after dosing with 3 animals per timepoint.
Serum hIgG concentrations were measured by ELISA.

IgE = test: Pharmacodynamic study: clearance of target IgE by OMA conjugates in mice, serum hIgE by ELISA; format: in vivo, C57BL/6 mice; conditions: 0.1 mg/kg of OMA conjugate, IgE 1 mg/kg
Description: Protocol: Female C57BL/6 mice were IV dosed 1 mg/kg of IgE followed by 0.1, 0.3, 1, or 3 mg/kg of OMA-I-163 16 hours later. Serum samples were collected at 0 (pre-bleed), 1, 4, and 24 hours after OMA-I-163 dose with 3 animals per timepoint.
Serum hIgE and hIgG concentrations were measured by ELISA.
Protocol: Female C57BL/6 mice were IV dosed 1 mg/kg of IgE followed by 0.1 mg/kg of OMA-I-163, OMA-I-162, OMA-I-161, and OMA-I-160 16 hours later. Serum samples were collected at 0 (pre-bleed), 1, 4, and 24 hours after LYTAC dose with 3 animals per timepoint.
Serum concentrations were measured by Elisa.

HepG2 cells [3] = test: Uptake of IgG2a antibody conjugates into HepG2 cells; format: cell-based, human; conditions: one hour incubation
Description: The uptake of antibody conjugates of exemplary M6PR or ASGPR binding compounds was assessed in Hep G2 cells, using a method similar to that described in Example above.

| SMILES | relative uptake activity of Alexa488 labeled-target IgE in HepG2 cells (HepG2 cells [1]) | PK profile / clearance of OMA-linked compound (serum hIgG) [2] | IgE clearance efficiency compared to reference OMA-I-163 (IgE) | HepG2 cellular uptake of antibody conjugate (cell fluorescence, MFI) (HepG2 cells [3]) |
| --- | --- | --- | --- | --- |
| CC(=O)N[C@@H]1[C@@H](O)[C@@H](O)[C@@H](CO)C[C@H]1n1cc(COCCOCCOCCNC(=O)CCC(CCC(=O)NCCOCCOCCOCc2cn([C@@H]3O[C@H](CO)[C@H](O)[C@H](O)[C@H]3NC(C)=O)nn2)(CCC(=O)NCCOCCOCCOCc2cn([C@@H]3O[C@H](CO)[C@H](O)[C@H](O)[C@H]3NC(C)=O)nn2)NC(=O)CCCCCCCCCCC(=O)NCCN2C(=O)C=CC2=O)nn1 [Compound I-161] | essentially identical activity to the reference conjugate; also recorded: most active anomeric position variants | distinct PK profiles from reference compound I-163 | clear IgE more efficiently than the reference compound | – |
| CC(=O)N[C@@H]1[C@@H](O)[C@@H](O)[C@@H](CO)O[C@H]1Cc1cn(CCOCCOCCOCCNC(=O)CCC(CCC(=O)NCCOCCOCCOCCn2cc(C[C@@H]3O[C@H](CO)[C@H](O)[C@H](O)[C@H]3NC(C)=O)nn2)(CCC(=O)NCCOCCOCCOCCn2cc(C[C@@H]3O[C@H](CO)[C@H](O)[C@H](O)[C@H]3NC(C)=O)nn2)NC(=O)CCCCCCCCCCC(=O)NCCN2C(=O)C=CC2=O)nn1 [Compound I-160] | most active anomeric position variants | distinct PK profiles from reference compound I-163 | clear IgE more efficiently than the reference compound | – |
| O=C(CCOCCOCCOCCOCCn1cc(CCCCNC(=S)Nc2ccc(O[C@H]3O[C@H](CCP(=O)(O)O)[C@@H](O)[C@H](O)[C@@H]3O)cc2)nn1)Oc1c(F)c(F)c(F)c(F)c1F [Compound 520, reference compound] | – | – | – | comparable HepG2 cellular uptake; also recorded: comparable robust uptake into HepG2 cells |
| CC(=O)N[C@H]1[C@H](OCCCCC(=O)NCCCNC(=O)CCOCC(COCCC(=O)NCCCNC(=O)CCCCO[C@@H]2O[C@H](CO)[C@H](O)[C@H](O)[C@H]2NC(C)=O)(COCCC(=O)NCCCNC(=O)CCCCO[C@@H]2O[C@H](CO)[C@H](O)[C@H](O)[C@H]2NC(C)=O)NC(=O)CCCCCCCCCCC(=O)Oc2c(F)c(F)c(F)c(F)c2F)O[C@H](CO)[C@H](O)[C@@H]1O [Compound 1209] | – | – | – | comparable HepG2 cellular uptake |
| CC(=O)N[C@H]1[C@H](OCCCCC(=O)NCCCNC(=O)CCOCC(COCCC(=O)NCCCNC(=O)CCCCO[C@@H]2O[C@H](CO)[C@H](O)[C@H](O)[C@H]2NC(C)=O)(COCCC(=O)NCCCNC(=O)CCCCO[C@@H]2O[C@H](CO)[C@H](O)[C@H](O)[C@H]2NC(C)=O)NC(=O)CCCCCCCCCCCN2C(=O)C=CC2=O)O[C@H](CO)[C@H](O)[C@@H]1O [Compound 1210] | – | – | – | comparable HepG2 cellular uptake |
| CC(=O)N[C@@H]1[C@@H](O)[C@@H](O)[C@@H](CO)O[C@H]1n1cc(COCCOCCOCCNC(=O)CCC(CCC(=O)NCCOCCOCCOCc2cn([C@@H]3O[C@H](CO)[C@H](O)[C@H](O)[C@H]3NC(C)=O)nn2)(CCC(=O)NCCOCCOCCOCc2cn([C@@H]3O[C@H](CO)[C@H](O)[C@H](O)[C@H]3NC(C)=O)nn2)NC(=O)CCCCCCCCCCC(=O)Oc2c(F)c(F)c(F)c(F)c2F)nn1 [Compound I-143, perfluorophenyl 1-(1-((2R,3R,4R,5R,6R)-3-acetamido-4,5-dihydroxy-6-(hydroxymethyl)tetrahydro-2H-pyran-2-yl)-1H-1,2,3-triazol-4-yl)-15,15-bis(1-(1-((2R,3R,4R,5R,6R)-3-acetamido-4,5-dihydroxy-6-(hydroxymethyl)tetrahydro-2H-pyran-2-yl)-1H-1,2,3-triazol-4-yl)-12-oxo-2,5,8-trioxa-11-azatetradecan-14-yl)-12,17-dioxo-2,5,8-trioxa-11,16-diazaoctacosan-28-oate] | superior activity to the reference conjugate | – | – | – |
| CC(=O)N[C@@H]1[C@@H](O)[C@@H](O)[C@@H](CO)O[C@H]1SCCC(=O)NCCCCCNC(=O)CCOCC(COCCC(=O)NCCCCCNC(=O)CCS[C@@H]1O[C@H](CO)[C@H](O)[C@H](O)[C@H]1NC(C)=O)(COCCC(=O)NCCCCCNC(=O)CCS[C@@H]1O[C@H](CO)[C@H](O)[C@H](O)[C@H]1NC(C)=O)NC(=O)CCCCCCCCCCC(=O)Oc1c(F)c(F)c(F)c(F)c1F [Compound I-141, perfluorophenyl 1-(((2S,3R,4R,5R,6R)-3-acetamido-4,5-dihydroxy-6-(hydroxymethyl)tetrahydro-2H-pyran-2-yl)thio)-16,16-bis((3-((5-(3-(((2S,3R,4R,5R,6R)-3-acetamido-4,5-dihydroxy-6-(hydroxymethyl)tetrahydro-2H-pyran-2-yl)thio)propanamido)pentyl)amino)-3-oxopropoxy)methyl)-3,11,18-trioxo-14-oxa-4,10,17-triazanonacosan-29-oate] | superior uptake to that of the 0-glycoside | – | – | – |
| CC(=O)N[C@@H]1[C@@H](O)[C@@H](O)[C@@H](CO)O[C@H]1Cc1cn(CCOCCOCCOCCNC(=O)CCC(CCC(=O)NCCOCCOCCOCCn2cc(C[C@@H]3O[C@H](CO)[C@H](O)[C@H](O)[C@H]3NC(C)=O)nn2)(CCC(=O)NCCOCCOCCOCCn2cc(C[C@@H]3O[C@H](CO)[C@H](O)[C@H](O)[C@H]3NC(C)=O)nn2)NC(=O)CCCCCCCCCCC(=O)Oc2c(F)c(F)c(F)c(F)c2F)nn1 [Compound I-140, perfluorophenyl 1-(4-(((2S,3R,4R,5R,6R)-3-acetamido-4,5-dihydroxy-6-(hydroxymethyl)tetrahydro-2H-pyran-2-yl)methyl)-1H-1,2,3-triazol-1-yl)-16,16-bis(1-(4-(((2S,3R,4R,5R,6R)-3-acetamido-4,5-dihydroxy-6-(hydroxymethyl)tetrahydro-2H-pyran-2-yl)methyl)-1H-1,2,3-triazol-1-yl)-13-oxo-3,6,9-trioxa-12-azapentadecan-15-yl)-13,18-dioxo-3,6,9-trioxa-12,17-diazanonacosan-29-oate] | comparable activity to the conjugate having the 0-glycoside | – | – | – |
| CC(=O)N[C@@H]1[C@@H](O)[C@@H](O)[C@@H](CO)O[C@H]1SCCC(=O)NCCCCCNC(=O)CCOCC(COCCC(=O)NCCCCCNC(=O)CCS[C@@H]1O[C@H](CO)[C@H](O)[C@H](O)[C@H]1NC(C)=O)(COCCC(=O)NCCCCCNC(=O)CCS[C@@H]1O[C@H](CO)[C@H](O)[C@H](O)[C@H]1NC(C)=O)NC(=O)CCCCCCCCCCC(=O)NCCN1C(=O)C=CC1=O [Compound I-162] | most active anomeric position variants | distinct PK profiles from reference compound I-163 | clear IgE more efficiently than the reference compound | – |
